Assays:
[1] = Glucuronidation of 1′-hydroxymyristicin, male rat liver S9; assay type: in vitro ADME
Description: The kinetic constants for the metabolic conversion of 1′-hydroxymyristicin to 1′-hydroxymyristicin glucuronide (HMG) by both male rat and human liver fractions were determined as described previously for the related 1′-hydroxyalkenylbenzenes (Punt et al. [2008]; van den Berg et al. [2012]; Punt et al. [2009]; Martati et al. [2011], [2012]; Al-Subeihi et al. [2011], [2012]). Briefly, incubations contained (final concentrations) 10 mM of UDPGA and 0.5 mg/ml of male Sprague–Dawley or pooled gender human S9 protein in 0.2 M Tris–HCl (pH 7.4) containing 10 mM of MgCl2. To overcome enzyme latency and to obtain maximal glucuronidation activity, incubations containing S9 were pretreated on ice with 0.025 mg/ml alamethicin added from a 200 times concentrated stock dissolved in methanol (Fisher et al. [2000]; Lin and Wong [2002]). After 15 min of alamethicin treatment, samples were pre-incubated at 37 °C for 1 min, and reactions were subsequently started by adding 1′-hydroxymyristicin at final concentrations of 10 to 1200 μM. 1′-Hydroxymyristicin was added from 100 times concentrated stock solutions in DMSO. The reaction mixtures were incubated for 30 and 180 min for rat and human, respectively, and terminated by adding 25 µl (0.25 times the incubation volume) of ice-cold ACN. Blank incubations were carried out in the absence of the cofactor UDPGA. Experiments were performed in triplicate. The longer incubation time in human samples was required due to the lower rate of glucuronidation. The formation of 1′-hydroxymyristicin glucuronide was linear with time and the S9 protein concentration under the experimental conditions described. All samples were centrifuged for 5 min at 16,000×g, and the supernatant was stored at −20 °C until ultra-performance liquid chromatography (UPLC) analysis.
1′-Hydroxymyristicin glucuronide was estimated based on the comparison of the peak area of the formed metabolite to the calibration curve of 1′-hydroxymyristicin at a wavelength of 210 nm. The flow rate was 0.6 ml/min. The gradient was made using a mixture of ACN and ultrapure water containing 0.1 % (v/v) TFA.

[2] = Oxidation of 1′-hydroxymyristicin to 1′-oxomyristicin, human liver microsomes; assay type: in vitro ADME; conditions: human vs rat
Description: The kinetic constants for the enzymatic conversion of 1′-hydroxymyristicin to 1′-oxomyristicin were determined using incubation mixtures containing (final concentrations) 3 mM NAD^+, 2 mM GSH, and 1 mg/ml rat or human liver microsomes in 0.2 M Tris–HCl (pH 7.4). GSH was added to the incubation mixtures to trap the reactive 1′-oxo metabolite formed after oxidation of 1′-hydroxymyristicin. The level of GSH in the incubations was optimized in a previous study to obtain maximum scavenging of 1′-oxoestragole (Punt et al. [2009]). To this end, incubations were performed in the presence of increasing concentrations of GSH, ranging from 2 to 10 mM. […] Kinetic constants for this reaction in rat and human liver were derived by performing incubations with NAD^+ as a cofactor, given that in rat and human liver, NAD^+ is mainly present in an oxidized form with levels of NAD^+ being much higher than those of NADH. In a previous study, it was shown that the highest level of 1′-hydroxy alkenylbenzene oxidation occurs in incubations with microsomes in the presence of NAD^+ as cofactor. […] The enzyme responsible for the oxidation may be 17β-hydroxysteroid dehydrogenase type 2 (17β-HSD2) (Punt et al. [2010]). Prior to the addition of 1′-hydroxymyristicin at final concentrations ranging between 10 and 4000 μM to the incubation mixture from 100 times concentrated stock solutions in DMSO, samples were pre-incubated for 1 min at 37 °C. Reactions were terminated after 10 min of incubation at 37 °C by adding 25 μl (0.25 times the incubation volume) of ice-cold ACN. The formation of the GSH conjugate of 1′-oxomyristicin (GS-1′-oxomyristicin) was linear with time and microsomal protein concentration under the experimental conditions used. Blank incubations were performed without the cofactor NAD^+. Incubations were performed in triplicate. All samples were centrifuged for 5 min at 13,000×g, and the supernatant was stored at −20 °C until UPLC analysis.
Quantification of GS-1′-oxomyristicin was based on a calibration curve of the GSH adduct of the synthesized 1′-oxymyristicin made as previously described (van den Berg et al. [2012]; Punt et al. [2009]; Martati et al. [2011]; Al-Subeihi et al. [2011]). In short, a 60 μM concentration of the synthetic standard of 1′-oxomyristicin, dissolved in ACN, was incubated with different concentrations of GSH (i.e., 0–20 μM) in 0.2 M Tris–HCl (pH 7.4) for 6 h at 37 °C, resulting in full conversion of the GSH to GS-1′-oxymyristicin. Quantification was done by comparing the peak areas of the formed GS-1′-oxo metabolite in the incubation mixtures with peak areas of the GS-1′-oxymyristicin calibration curve thus obtained at a wavelength of 212 nm. The gradient for analysis of the metabolite consisted of a mixture of ACN and ultrapure water containing 0.1 % (v/v) TFA. The flow rate was 0.6 ml/min, The gradient started with 10 % ACN, increased to 30 % ACN over 2.5 min, after which ACN was increased to 80 % over 0.5 min, kept at 80 % for 0.5 min, followed by a decrease to 10 % over 0.5 min, and finally kept at 10 % for 0.5 min.

C=CC(O)c1cc(OC)c2c(c1)OCO2 (stereo not drawn) [1′-Hydroxymyristicin, 1′-hydroxymyristicin]
Km at 30 min ([1]; male, Sprague-Dawley, rat, pH 7.4, 1′-hydroxymyristicin to its glucuronide, S9, UDPGA, read-out: Km): 836 µM
catalytic efficiency of glucuronidation, fold higher in male rats than in human ([1]; rat vs human): 400 fold
oxidation, times more efficient in human liver than in male rat liver [2]: 1.2 times
